As usually defined, the LD50 is the dose expected to kill half of the subjects tested. The low end stands for a more toxic substance, the high end for a less toxic substance.

Molecules are shown by their SMILES. Values after ≈ are worked out from the molar mass of the structure shown.

In series [1] the test system is Adriamycin-resistant mouse leukemic cells P388/ADR. In words: In vitro tumor cell proliferation inhibiting test (Adriamycin-resistant mouse leukemic cells P388/ADR). As to conditions: 48 h, 2×10^5, RPMI 1640 with 10% bovine fetal serum, 2 days, read-out: 50% proliferation inhibitory concentration: IC50. In kind it is cell-based. As to the method:
2×10^5 Adriamycin-resistant mouse leukemic cells P388/ADR are suspended in a RPMI 1640 culture medium containing 10% of a bovine fetal serum, and cultured for 2 days in the presence of a test compound (the test compound is dissolved in dimethyl sulfoxide such that the concentration becomes 1 mg/ml, and this is diluted with a phosphate buffer solution). An influence on cell proliferation is investigated, and 50% proliferation inhibitory concentration: IC50 value (μg/ml) is determined.

Series [2] is described as follows: Acute toxicity test. Particulars: mouse, in vivo, mortality for 1 week, Litchfield-Wilcoxon method. On the set-up: species or system mouse (ddY male). How it is done:
The test compound is administered to each 5-week old ddY male mouse, and mortality is observed for 1 week. A 50% lethal dose (LD50) is calculated from the number of mice died in each group by a Litchfield-Wilcoxon method. The test compound (compound (a)) is suspended in 10% propylene glycol. Ten dilution gradients are prepared from the maximum concentration 80 mg/kg at a ratio of 1.2, and the test is carried out.

The subject of series [3] is Sarcoma 180 solid tumor. In words: In vivo test on Sarcoma 180 solid tumor transplanted mice. Set-up: species or system mouse (ddY female). As to conditions: for Average tumor weight (mean ± SD, g): once a day over 10 days from 6th day, tumor taken out 30 days after transplantation; for Percent inhibition: tumor weight, 30 days after transplantation. How it is done:
2×10^6 Sarcoma 180 cells are transplanted subcutaneously in the back of each of 6-week old ddY female mice. Over 10 days from the 6th day after the tumor transplantation in groups each consisting of 6 mices, the test compound (which is dissolved in propylene glycol and diluted with a phosphate buffer solution such that the final concentration of propylene glycol becomes 20% or less) is continuously administered in the abdominal cavity once a day. Thirty days after the tumor transplantation, the tumor is taken out. Its weight is measured, and an average tumor weight and percent inhibition* are measured. [formula]

Series [4] deals with Sarcoma 180 ascites tumor. In words: In vivo test on Sarcoma 180 ascites tumor transplanted mice. On the set-up: species or system mouse (ddY male). As to conditions: once a day over 7 days; for Average number of survival days (mean ± SD): 6 mice per group; for Cured example: groups of 6 mice. As to the method:
1×10^6 Sarcoma 180 cells are transplanted in an abdominal cavity of each of 6-week old ddY male mice. Over 7 days after the first day of transplantation of tumor cells in groups each consisting of 6 mice, the test compound (which is dissolved in propyplene glycol and diluted with a phosphate buffer solution such that the final concentration of propylene glycol becomes 20% or less) is administered in the abdominal cavity once a day, and an average number of survival days and percent prolongation* are measured. [formula]

With `COc1cc2c(c(OC)c1OC)-c1ccc(OC)c(=O)cc1C(NC(=O)[C@H]1O[C@H](O)[C@H](O)[C@@H](O)[C@@H]1O)CC2` (stereo partly shown) [Compound 5, N-(5,6,7,9-tetrahydro-1,2,3,10-tetramethoxy-9-oxobenzo[a]heptalen-7-yl)glucuroneamide], in series [1], the IC50 turned out to be 0.037 µg/mL (≈ 0.0693 µM).

For `COc1cc2c(c(OC)c1OC)-c1ccc(OC)c(=O)cc1C(NC(=O)[C@@H]1COC(C)(C)O1)CC2` (stereo partly shown) [Compound 1a, Deacetylcolchicine-glyceric Acid Acetonideamide], the LD50 at 168 h in series [2] (ip, intraperitoneal) was determined as 42 mg/kg; in series [2] (intravenous), 38 mg/kg. In series [1], the IC50 was determined as 0.036 µg/mL (≈ 0.0741 µM). The “Average tumor weight (mean ± SD, g)” value is listed as 0.71 ± 0.38 g in series [3] (0.625 μg/kg i.p.), 0.88 ± 0.78 g in series [3] (1.25 μg/kg i.p.), 0.63 ± 0.51 g in series [3] (2.5 μg/kg i.p.) and 0.60 ± 0.52 g in series [3] (5.0 μg/kg i.p.). In addition, the Percent inhibition is listed as 49.6% in series [3] (0.625 μg/kg i.p.), 47.6% in series [3] (1.25 μg/kg i.p.), 55.3% in series [3] (2.5 μg/kg i.p.) and 57.4% in series [3] (5.0 μg/kg i.p.). In addition, the Percent prolongation in series [4] (0.31 mg/kg i.p.) stood at 188%; in series [4] (0.63 mg/kg i.p.), 281%; in series [4] (1.25 mg/kg i.p.), 277%; in series [4] (2.5 mg/kg i.p.) it was 333%. The “Average number of survival days (mean ± SD)” value (“Average number … (mean ± SD)” for short) in series [4] (0.31 mg/kg i.p.) is given as 36.0 ± 8.0 days; in series [4] (0.63 mg/kg i.p.), 47.7 ± 11.1 days; in series [4] (1.25 mg/kg i.p.), 47.2 ± 11.5 days; in series [4] (2.5 mg/kg i.p.) it was 54.2 ± 11.6 days. The figures for the Cured example in series [4] (0.63 mg/kg i.p.), in series [4] (1.25 mg/kg i.p.) and in series [4] (2.5 mg/kg i.p.) were 1, 2 and 4, respectively.

Turning to `COc1cc2c(c(OC)c1OC)-c1ccc(OC)c(=O)cc1C(NC(=O)[C@H]1COC(C)(C)O1)CC2` (stereo partly shown) [Compound 1b, Deacetylcolchicine-glyceric Acid Acetonideamide], the IC50 in series [1] turned out to be 0.066 µg/mL (≈ 0.136 µM). In addition, in series [4] (1.25 mg/kg i.p.), the Percent prolongation amounted to 240%, the “Average number … (mean ± SD)” value was found to be 42.5 ± 15.4 days and the Cured example was 1. In series [4] (2.5 mg/kg i.p.), the Percent prolongation stood at 356%, the “Average number … (mean ± SD)” value was found to be 57.0 ± 7.3 days and the Cured example is given as 5. In series [4] (5 mg/kg i.p.), the Percent prolongation is 356%, the “Average number … (mean ± SD)” value amounted to 57.0 ± 5.3 days and the Cured example came out at 4.

For `COc1cc2c(c(OC)c1OC)-c1ccc(OC)c(=O)cc1C(NC(=O)[C@H]1O[C@H](OC(C)=O)[C@H](O)[C@@H](O)[C@@H]1OC(C)=O)CC2` (stereo partly shown) [Compound 4, Deacetylcolchicine-glucuronic acid diacetateamide], the IC50 in series [1] is 0.034 µg/mL.

These data come from US5220002A, “Deacetylcolchicine derivatives” (Ohgen Research Laboratories, Ltd., priority 1990, dated 1993).
